Key:
Format in all cases: cell-based
[1] = molecular target: T1, acid-sensing ion channel 3 (rASIC3) (Rattus norvegicus, UniProt O35240); experiment: whole-cell patch clamp, rASIC3-transfected CHO cells, activation at pH […] (estimated EC50; also potentiates pH […] and pH […] responses)
T1 construct: gene Asic3
T1 sequence (O35240 1-533): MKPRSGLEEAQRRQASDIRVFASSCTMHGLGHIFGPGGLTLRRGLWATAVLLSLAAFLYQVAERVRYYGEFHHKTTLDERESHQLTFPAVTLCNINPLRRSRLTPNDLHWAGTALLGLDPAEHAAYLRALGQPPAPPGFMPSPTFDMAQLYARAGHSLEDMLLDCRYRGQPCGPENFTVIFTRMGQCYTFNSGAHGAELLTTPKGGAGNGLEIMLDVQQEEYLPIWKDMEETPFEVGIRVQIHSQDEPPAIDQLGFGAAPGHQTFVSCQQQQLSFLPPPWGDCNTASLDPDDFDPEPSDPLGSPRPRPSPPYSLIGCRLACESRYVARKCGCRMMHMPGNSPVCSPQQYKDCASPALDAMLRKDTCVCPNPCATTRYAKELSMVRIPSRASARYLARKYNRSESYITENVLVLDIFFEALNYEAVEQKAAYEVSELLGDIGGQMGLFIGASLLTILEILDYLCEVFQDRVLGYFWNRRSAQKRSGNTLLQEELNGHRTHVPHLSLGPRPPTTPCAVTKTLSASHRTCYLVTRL

[2] = molecular target: T1, acid-sensing ion channel 3 (rASIC3); experiment: whole-cell patch clamp, rASIC3-transfected CHO cells, activation at pH […] (reference agonist; estimated EC50)
[3] = molecular target: T1, acid-sensing ion channel 3 (rASIC3); experiment: whole-cell patch clamp, rASIC3-transfected CHO cells, potentiation of the pH […] response at […] (no effect on pH […] response)

N=C(N)N/N=C/c1c(Cl)cccc1Cl [GBZ, guanabenz]
EC50 [1]: ~67.5 µM

Cc1nc(NC(=N)N)nc2ccccc12 [GMQ, 2-guanidine-4-methylquinazoline]
EC50 [2]: ~680 µM

Clc1ccc2nsnc2c1NC1=NCCN1 [TIZ, tizanidine]
whole-cell patch clamp, rASIC3-transfected CHO cells, potentiation of the pH 7 r [3]: TIZ and GBZ produced a similar effect, inducing an increase in the peak and sustained currents
